# Data as given in patent US20180016259A1, “QUINAZOLINE INHIBITORS OF ACTIVATING MUTANT FORMS OF EPIDERMAL GROWTH FACTOR RECEPTOR” (AstraZeneca AB, priority 2013, published 2018).
# Read-outs that look alike come from different tables or passages of the source.
# Legend:
# [1] = Brain blood barrier penetration assay (short oral absorption model with in vitro blood and brain binding); type: in vivo; conditions: male Han Wistar rats, oral 2 mg/kg in 1% methylcellulose; for Kp uu: rat
# Description: Both Kp,uu brain and Kp,uu CSF should be the main parameters measured and optimized in CNS drug discovery (Di L et al., Journal of Medicinal Chemistry [2013], 56: 2-12). Kp,uu brain, the relationship between concentrations of unbound drug in brain and in blood, predicts drug action on metastatic tumors in brain Leptomeningeal metastasis (LM) results from metastatic spread of cancer to the leptomeninges, giving rise to central nervous system dysfunction. Kp,uu CSF represents the distribution of drug in CSF as compared to that in blood, which drives drug response during leptomeningeal metastasis treatment.
# In vitro blood and brain binding assay was carried out on a HT-Dialysis plate (Gales Ferry, Conn.) with semi-permeable membrane. Diluted blood (1:1 with DPBS pH7.4) and brain homogenate (1:3 with DPBS pH7.4) were spiked with 5 μM test compound (in triplicate) and dialyzed against equal volume of 150 μL 100 mM PBS buffer (pH7.4) at 37° C. for 4 hours in a slowly rotated plate. At the end of incubation, a 50 μL aliquot from the receiver side and a […] from the donor chamber were taken. The 5 μL sample was further diluted with 45 μL of blank blood or brain homogenate. Paired samples were matrix-matched with either buffer or blank blood/brain homogenate and mixed for 2 min, and then precipitated with 150 μL cold acetonitrile with 100 ng/mL tolbutamide as internal standard. After centrifuging at 4000 rpm for 20 min, supernatant was diluted with 0.1% formic acid aqueous solution and analyzed for LC/MS/MS (API 4000, Applied Biosystems, Foster City). […]. D is dilution factor.
# A Short oral absorption (SOA) model is an in-vivo screening model to identify brain penetration of a compound. Six male Han Wistar rats purchased from Beijing Vital River were orally dosed with the compound at 2 mg/kg in 1% methylcellulose. At 0.25, 0.5, 1, 2, 4 and 7 hour post-dose, cerebral spinal fluid (CSF) was collected from cisterna magna, and blood samples (>60 μL/time point/each site) were collected via cardiac puncture, into separate EDTA […] tubes, and then immediately diluted with 3-fold volume of water. Brain tissue was harvested and homogenized in 3× volume of 100 mM phosphate buffered saline (pH7.4). All samples were stored at ˜−70° C. prior to LC/MS/MS analysis.
# Standards were prepared by spiking blank blood, brain homogenate and artificial CSF covering 0.2 to 500 ng/mL. Homogenized brain tissue along with blood samples were precipitated by adding 3-fold volume of cold acetonitrile containing internal standard (40 ng/mL Dexamethasone and 40 ng/mL Diclofenac), and 10 μL of CSF samples were precipitated with 100 μL of cold acetonitrile containing internal standard. After 2 min vortex and 5 min centrifugation at 14,000 rpm, supernatant was analyzed by LC/MS/MS (API 4000, Applied Biosystems, Foster City). Two sets of standard curves were run at the beginning and end of each batch from blood sample analysis. For brain and CSF samples, one standard curve was analyzed along with test samples.
# Total brain levels, expressed as brain/blood ratio (Kp,brain) were measured by AUCbrain/AUCblood in rodents after oral administration. Free fraction of test compound in biological matrix was determined by in vitro blood and brain binding assay. Kp,uu brain and Kp,uu CSF were calculated by the following equation: Kp,uu brain=AUCbrain/AUCblood×(fu,brain/fu.blood) and Kp,uu CSF=AUCCSF/(AUCblood×fu.blood).
# [2] = literature reports; cited from earlier work
compound,measurement,setting,value
"COc1cc2ncnc(Nc3cccc(Cl)c3F)c2cc1OC(=O)N1CCN(C)C[C@H]1C [Example 1, 4-[(3-Chloro-2-fluorophenyl)amino]-7-methoxyquinazolin-6-yl (2R)-2,4-dimethylpiperazine-1-carboxylate]",Kp uu,"[1]; male, Han Wistar, in vivo, po, 2 mg/kg, AUCCSF/(AUCblood x fu,blood), read-out: Kp, uu CSF",1 to 1.3
same,Kp uu,"[1]; male, Han Wistar, in vivo, po, 2 mg/kg, AUCbrain/AUCblood x (fu,brain/fu,blood), read-out: Kp, uu brain",0.8 to 1.3
"COc1cc2ncnc(Nc3cccc(Cl)c3F)c2cc1OC(=O)N1CCN(C)C[C@@H]1C [Example 3, 4-[(3-Chloro-2-fluorophenyl)amino]-7-methoxyquinazolin-6-yl (2S)-2,4-dimethylpiperazine-1-carboxylate]",Kp uu,"[1]; CSF / blood, AUCCSF/(AUCblood x fu,blood), read-out: Kp, uu CSF",2.6
CN(C)C/C=C/C(=O)Nc1cc2c(Nc3ccc(F)c(Cl)c3)ncnc2cc1O[C@H]1CCOC1 [afatinib],"adverse effects, such as skin rash and diarrhoea, share of NSCLC patients treated",[2],> 90%
COc1cc2ncnc(Nc3ccc(F)c(Cl)c3)c2cc1NC(=O)/C=C/CN1CCCCC1 [dacomitinib],"adverse effects, such as skin rash and diarrhoea, share of NSCLC patients treated",[2],> 90%
CNC(=O)CN1CCC(Oc2cc3c(Nc4cccc(Cl)c4F)ncnc3cc2OC)CC1 [sapitinib],"Kp, uu CSF","[1]; AUCCSF/(AUCblood x fu,blood)",Below quantification limit
same,Kp uu,"[1]; AUCbrain/AUCblood x (fu,brain/fu,blood), read-out: Kp, uu brain",0.13
